{
  "source": "patent US20250186485A1",
  "about": "“HYDRATION COMPOSITIONS” (priority 2017, published 2025)",
  "key": {"[1]": {"tested_on": "patient with right foot rest pain and disabling claudication", "conditions": "Case 2; for walking distance without pain: three liters of fluid a day", "from_the_text": "A patient came to the consult with right foot rest pain, pallor and coldness up to the knee. […] Rest pain started one week before the consult and their claudication became disabling one month before. The patient was drinking less than 700 milliliters a day of fluids. […] Before proceeding to amputation, proper hydration was achieved. […] Three liters of fluid a day was recommended and the patient was discharged."}, "[2]": {"tested_on": "patients with disabling intermittent claudication or rest pain of the lower extremities", "from_the_text": "(§1) Dehydration often occurs in elderly population. Incidence of peripheral artery disease in patients over 60 years of age ranges between 18 and 29%. It was hypothesized that dehydration aggravates symptoms of PAD. Patients with disabling claudication or rest pain resistant to standard medical therapy were instructed to drink between 2,500 to 3000 milliliters of water according to their body mass.\n(§2) Patients without a past history of Congestive Heart Failure or renal insufficiency were included in the following example without interrupting exercises they were performing or medication they were receiving. Ninety percent of the patients were receiving aspirin and 100% of them Statins and Cilostazol at least for 5 months before starting the protocol. (See Table 2 below.)\n(§3) All patients belonged to category IIb of Fontaine and grade 1 category 2 and 3 of Rutherford.\n(§4) Protocol: Complete physical examination and laboratory work were performed. Ankle-brachial pressures were recorded. • 1) Graphics of skin temperature were obtained in both feet using a Flir Thermal Camera (Flir Systems Inc.) in a room at 24 degrees Celsius. (See FIGS. 3 and 4) • 2) Time and distance to claudication using a treadmill at 3 miles per hour was recorded. • 3) Subjective classification of pain intensity from […] was documented. (0=no pain, 10=intense pain) • 4) Skin color-including the absence and/or reduction in abnormal variations in skin color, skin tone and skin elasticity.\n(§5) Duplex of the abdominal artery, iliac arteries and infra-inguinal vessels was performed in every patient. Patients were followed weekly and underwent regular blood tests. Patients were recommended to drink 3,000 milliliters of water a day; fluids like tea and milk were counted in addition to water. This recommendation was the part of the protocol and it was carefully controlled."}, "[3]": {"tested_on": "patient with intermittent claudication of the lower extremities and abdominal angina", "conditions": "Case 1", "protocol": "A person complaining of 10 step intermittent claudication of the lower extremities, abdominal angina that produced a 15 Kg weight loss, and an abnormal renal function with a creatinine of 3.1 mg per deciliter.\nThe patient was having intermittent claudication for years but in the last four months it became disabling.\nOn physical exam patient had no palpable pulses.\nThe patient was admitted, stool cultures performed and patient was rehydrated with precaution considering their heart condition. […] After four days the patient was discharged and asked to drink 2.5 liters of fluids a day."}, "[4]": {"tested_on": "patients with disabling intermittent claudication or rest pain of the lower extremities", "from_the_text": "as §1, §2, §3, §4, §5\nStatistical analysis: software utilized: SPSS 20 Qualitative variables were expressed in percentages. Quantitative variables were analyzed with the test of Shapiro-Wilk. Continuous variables were expressed as median, 95% confidence intervals and interquartile intervals. Wilcoxon Signed Rank Test was also utilized P<0.05 was considered significant.", "remark": "listed apart in the source"}},
  "note": "Read-outs that look alike come from different tables or passages of the source.",
  "data": [
    {"smiles": "O", "note": "[water]", "values": [
      {"measurement": "walking distance without pain", "setting": "[1]; after seven months", "result": "walked four kilometers without pain"},
      {"measurement": "walking distance without pain", "setting": "[1]; after three months", "result": "walked three blocks without pain"},
      {"measurement": "rest pain of the right foot", "setting": "[1]; two days after proper hydration was achieved", "result": "pain subsided"},
      {"measurement": "status related to lower extremity ischemia", "setting": "[2]; 35 patients in whom proper hydration was achieved", "result": "all of them improved"},
      {"measurement": "ulcers in the toes and ankle", "setting": "[2]; anecdotal, drinking 3 liters of water a day", "result": "reversed the lesions"},
      {"measurement": "Time and distance to claudication, cutaneous temperature, ankle-brachial pressure and subjective pain sensation", "setting": "[2]; patients who drank more than 2.5 liters of fluids a day (35 of the 36 patients)", "result": "improved significantly"},
      {"measurement": "walking distance without pain", "setting": "[3]; 14 months after last admission, 2.5 liters of fluids a day", "result": "more than 4 blocks"},
      {"measurement": "walking distance without pain", "setting": "[3]; after rehydration in hospital, second day", "result": 50, "unit": "meters"},
      {"measurement": "pain intensity (final) Median", "setting": "[4]; 0=no pain, 10=intense pain, CI 1 to 2.341, initial median 6 (6 to 8), p<0,0001", "result": 2},
      {"measurement": "final Median dorsal temperature of the first right toe after treatment", "setting": "[4]; FIG. 5, median, 95% confidence interval 29.300 to 31.468, initial median 29.95 (28 to 31)", "result": 30.65},
      {"measurement": "final Median plantar temperature of the first right toe after treatment", "setting": "[4]; FIG. 6, median, CI 28.464 to 30.302, initial median 28.50 (27.366 to 29.939), p:0.0347", "result": 29.25},
      {"measurement": "Median temperature of the plantar aspect of the left foot after hydration", "setting": "[4]; after 6 weeks of hydration, before 28.40 (26.82-30), p: 0.030", "result": "29.20 (26.70-30.92) ° C."},
      {"measurement": "Median temperature of the plantar aspect of the right foot after 6 weeks", "setting": "[4]; after 6 weeks of hydration, before 28.70 (27-31), p: 0.011", "result": "29 (27.70-31) ° C."},
      {"measurement": "Median temperature of the dorsum of the left foot after 6 weeks", "setting": "[4]; after 6 weeks of hydration, before 29.40 (27.72-31.30), p: 0.009", "result": "30.20 (27.70-31.70) ° C."},
      {"measurement": "Median temperature of the dorsum of the right foot after hydration", "setting": "[4]; after 6 weeks of hydration, before protocol 29.95 (27.60-31.15), p: 0.02", "result": "30.35 (28.12-31.60) ° C."},
      {"measurement": "Decrease of pain sensation recorded, percentage of patients", "setting": "[4]; after treatment", "result": "91.7 % of patients"},
      {"measurement": "Patients with improvement of pain sensation of more than 50%", "setting": "[4]; after treatment", "result": "80 % of the patients"},
      {"measurement": "Median ankle/brachial index after 6 weeks of treatment", "setting": "[4]; initial median 0.6 (0.50 to 0.69), p<0,0001", "result": "0.75 (0.62 to 0.80)"},
      {"measurement": "Final pain intensity sensation, patient 15", "setting": "[4]; single patient 15, final intake of water 3000 ml, initial 6", "result": 0},
      {"measurement": "Distance to claudication (final), patient 15", "setting": "[4]; single patient 15, final intake of water 3000 ml, initial 300 mts", "result": 6000, "unit": "mts"},
      {"measurement": "Final ankle/brachial index, patient 15", "setting": "[4]; single patient 15, final intake of water 3000 ml, initial index 0.77", "result": 0.83},
      {"measurement": "distance to claudication, final Median", "setting": "[4]; treadmill 3 miles per hour, end of 6 weeks, CI 382.947 to 800, initial median 100 (50 to 200), p<0.0001", "result": 535},
      {"measurement": "Time to claudication after hydration, Median", "setting": "[4]; treadmill, 95% CI 4.195 to 9.209, initial median 1.3 (0.7 to 2.500), p<0.0001", "result": 6.3, "unit": "min"}
    ]}
  ]
}
